According to US4214093A, “Amino- or guanidino-1,2,3,4-tetrahydro-1-naphthoic esters” (Torii & Co., Ltd., priority 1977, dated 1980):
Read-outs that look alike come from different tables or passages of the source.

Key:
[1] = tested on: clotting activity of thrombin; assay: Inhibitory activity on plasma clotting (rabbit platelet poor plasma, thrombin-induced); assay type: biochemical
Experimental: Blood was drawn from carotid artery of an ether anesthetized rabbit with 1/10 volume of 3.8% sodium citrate. Platelet poor plasma (PPP) was prepared from citrated blood which was centrifuged at 3,000 r.p.m. for 15 minutes at 4° C. PPP, 0.9 ml, was taken into cell, 10μ of a compound solution was added and incubated at 37° C. for 10 minutes. […] Compounds were dissolved in distilled water or 50% dimethyl sulfoxide (0.5% final concentration).

thrombin = assay: Inhibitory activity on thrombus formation: protection from lethal thrombin injection in mice; assay type: in vivo, mice (ddY strain); conditions: 10 minutes before thrombin 300 NIH units/kg i.v., No. 91 in 2.5% gum arabic
Experimental: White male mice (ddY strain), 4 weeks age and weighing 18-27 g, were used throughout the experiments. […] The intravenous injection of 300 NIH units/kg of thrombin over 30 seconds into mice was lethal to all animals. The compounds were intraperitoneally administered in doses of 1, 10, and 100 mg/kg in saline unless otherwise described.
Compounds were intraperitoneally administered 10 minutes before thrombin injection. Compound No. 91 was dissolved in 2.5% gum arabic.

Human Plasma Kallikrein = Human Plasma Kallikrein (Homo sapiens, UniProt P03952); assay: Inhibitory effect on ester-hydrolyzing activity of human plasma kallikrein (TAMe substrate); assay type: biochemical; conditions: for IC50: Table 4 bracketed value, read-out: Kallikrein ID50
Human Plasma Kallikrein, sequence (P03952 391-638 limits assumed): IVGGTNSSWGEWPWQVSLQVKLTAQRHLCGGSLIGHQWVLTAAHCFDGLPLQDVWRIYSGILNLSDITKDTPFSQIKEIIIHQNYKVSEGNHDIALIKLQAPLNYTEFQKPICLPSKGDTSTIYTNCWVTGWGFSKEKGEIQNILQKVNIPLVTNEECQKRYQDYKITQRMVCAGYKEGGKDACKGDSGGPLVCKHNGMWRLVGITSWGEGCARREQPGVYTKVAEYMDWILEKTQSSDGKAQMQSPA
Human Plasma Kallikrein, sequence (P03952 20-390 partner limits assumed): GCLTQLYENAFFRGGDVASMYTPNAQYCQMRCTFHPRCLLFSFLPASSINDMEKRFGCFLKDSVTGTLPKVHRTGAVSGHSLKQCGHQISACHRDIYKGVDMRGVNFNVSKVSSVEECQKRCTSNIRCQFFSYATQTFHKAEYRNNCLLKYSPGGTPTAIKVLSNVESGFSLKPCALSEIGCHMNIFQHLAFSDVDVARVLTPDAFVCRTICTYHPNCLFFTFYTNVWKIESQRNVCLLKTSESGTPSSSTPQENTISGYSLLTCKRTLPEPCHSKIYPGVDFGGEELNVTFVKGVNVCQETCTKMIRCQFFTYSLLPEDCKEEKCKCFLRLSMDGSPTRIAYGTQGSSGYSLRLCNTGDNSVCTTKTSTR
Experimental: (§1) The enzyme-inhibitory activities in vitro of the compounds of this invention were measured by the following procedure according to the method of M. Muramatsu et al. [[…]. […] After the incubation, 1.5 ml of 2 M alkaline hydroxylamine was added and thoroughly mixed, and allowed to stand at room temperature for 15 minutes.

Bovine Thrombin = Bovine Thrombin (Bos taurus, UniProt P00735); assay: Inhibitory effect on ester-hydrolyzing activity of bovine thrombin (TAMe substrate); assay type: biochemical; conditions: for inhibition at 1000 µM: at 10^-3 M, in vitro, TAMe, read-out: Thrombin percent inhibition
Experimental: The enzyme-inhibitory activities in vitro of the compounds of this invention were measured by the following procedure according to the method of M. Muramatsu et al. [M. Muramatsu, T. Onishi, S. Makino, Y. Hayashi and S. Fujii: J. Biochem., 58, 214 (1965)]
To 0.1 ml of trypsin (5 μg/ml) were added 0.5 ml of 0.1 M borate buffer solution (pH 8.6) containing 10 mM CaCl2, and 0.1 ml of a varying concentration of an inhibitor solution, and preincubation was carried out at 37° C. for 5 minutes. Then, 10 μmoles of the substrate, TAMe (tosylarginine methyl ester), was added, and incubation was preformed at 37° C. for 30 minutes.
After the incubation, 1.5 ml of 2 M alkaline hydroxylamine was added and thoroughly mixed, and allowed to stand at room temperature for 15 minutes. Then, 1.0 ml of each of 18% trichloroacetic acid, 4 N HCl and 10% FeCl3 was added and thoroughly mixed. If necessary, the mixture was centrifuged at 3,000 rpm for 10 minutes, and the absorbance of the supernatant was measured at 530 nm.
It was measured by using 0.4 ml of bovine thrombin […], 0.02 M sodium phosphate buffer solution (pH 7.4) and TAMe as substrate following the method described in (1).

Human Plasmin = Human Plasmin (Homo sapiens, UniProt P00747); assay: Inhibitory effect on ester-hydrolyzing activity of human plasmin (TAMe substrate); assay type: biochemical; conditions: for inhibition at 1000 µM: read-out: Plasmin percent inhibition; for IC50: Table 4 bracketed value, read-out: Plasmin ID50
Human Plasmin, sequence (P00747 581-810 limits assumed): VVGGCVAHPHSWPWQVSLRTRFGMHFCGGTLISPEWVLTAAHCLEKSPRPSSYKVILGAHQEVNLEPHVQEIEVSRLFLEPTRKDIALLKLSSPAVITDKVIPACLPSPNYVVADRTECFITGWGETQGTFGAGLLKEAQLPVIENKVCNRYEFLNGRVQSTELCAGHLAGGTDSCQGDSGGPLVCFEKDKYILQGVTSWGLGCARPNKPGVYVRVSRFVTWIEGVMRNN
Human Plasmin, sequence (P00747 97-580 partner limits assumed): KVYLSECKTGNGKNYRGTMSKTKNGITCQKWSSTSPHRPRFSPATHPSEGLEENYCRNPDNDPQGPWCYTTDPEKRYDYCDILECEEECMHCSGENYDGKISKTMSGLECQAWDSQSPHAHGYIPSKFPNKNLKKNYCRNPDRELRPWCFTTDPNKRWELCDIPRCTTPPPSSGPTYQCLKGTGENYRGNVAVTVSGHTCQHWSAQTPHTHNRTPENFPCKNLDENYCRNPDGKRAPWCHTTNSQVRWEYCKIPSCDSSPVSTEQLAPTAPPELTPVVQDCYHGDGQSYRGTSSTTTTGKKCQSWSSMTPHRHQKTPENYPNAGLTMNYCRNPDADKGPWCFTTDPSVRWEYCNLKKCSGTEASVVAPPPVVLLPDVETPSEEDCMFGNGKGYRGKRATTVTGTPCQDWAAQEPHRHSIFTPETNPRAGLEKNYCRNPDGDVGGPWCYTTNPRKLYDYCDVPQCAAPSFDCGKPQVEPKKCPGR
Experimental: as §1, with “minutes. […] It was measured by using 0.1 ml of plasmin (generated by activation of plasminogen with streptokinase) and TAMe as substrate following the method described in (1).” for “minutes.”

Human Cl Esterase = biological target: T1, Human Cl Esterase (Homo sapiens, UniProt P09871); assay: Inhibitory effect on ester-hydrolyzing activity of human Cl esterase (ATEe substrate); assay type: biochemical; conditions: for IC50: pH 7.4, Table 4 bracketed value, read-out: Cl-esterase ID50; for inhibition at 1000 µM: read-out: Cl-esterase percent inhibition
T1 sequence (P09871 438-688 limits assumed): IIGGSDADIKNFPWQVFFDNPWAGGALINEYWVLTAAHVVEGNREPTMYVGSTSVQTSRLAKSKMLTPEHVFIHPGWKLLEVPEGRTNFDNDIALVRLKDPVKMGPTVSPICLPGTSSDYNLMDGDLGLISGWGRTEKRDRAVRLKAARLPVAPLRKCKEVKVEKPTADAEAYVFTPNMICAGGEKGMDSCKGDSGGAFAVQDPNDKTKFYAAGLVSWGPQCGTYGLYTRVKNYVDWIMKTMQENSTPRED
T1 sequence (P09871 16-437 partner limits assumed): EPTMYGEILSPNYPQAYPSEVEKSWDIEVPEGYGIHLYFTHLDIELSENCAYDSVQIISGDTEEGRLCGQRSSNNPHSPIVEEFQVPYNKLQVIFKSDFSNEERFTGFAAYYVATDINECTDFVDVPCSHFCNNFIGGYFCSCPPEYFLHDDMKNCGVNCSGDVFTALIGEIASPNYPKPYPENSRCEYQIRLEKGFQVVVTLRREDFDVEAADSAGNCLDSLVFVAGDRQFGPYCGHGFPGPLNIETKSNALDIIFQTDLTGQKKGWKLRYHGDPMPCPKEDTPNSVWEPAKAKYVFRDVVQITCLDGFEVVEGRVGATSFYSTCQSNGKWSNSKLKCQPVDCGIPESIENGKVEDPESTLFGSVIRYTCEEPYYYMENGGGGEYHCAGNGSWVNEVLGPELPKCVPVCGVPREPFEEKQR
Experimental: It was measured by using 0.1 ml of Cl esterase, 0.1 ml of 0.02 M sodium phosphate buffer solution (pH 7.4 ) and 10 μmoles of ATEe (acetyltyrosine ethyl ester) as substrate following the method described in (1).

Trypsin = biological target: T2, Trypsin (Bos taurus, UniProt P00760); assay: Inhibitory effect on ester-hydrolyzing activity of trypsin (TAMe substrate); assay type: biochemical; conditions: for inhibition at 1000 µM: read-out: Trypsin percent inhibition; for IC50: in vitro, TAMe, pH 8.6, 37° C., Table 4 bracketed value, read-out: Trypsin ID50
T2 sequence (P00760 24-246): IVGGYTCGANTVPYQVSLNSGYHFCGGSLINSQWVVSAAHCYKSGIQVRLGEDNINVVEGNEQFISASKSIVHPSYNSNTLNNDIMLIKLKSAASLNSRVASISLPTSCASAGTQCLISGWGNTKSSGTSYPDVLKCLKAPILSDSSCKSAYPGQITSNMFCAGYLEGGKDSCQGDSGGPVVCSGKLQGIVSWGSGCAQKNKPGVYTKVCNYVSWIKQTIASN
Experimental: as §1

inhibition at 1000 µM (Bovine Thrombin) [%] | IC50 (Trypsin) [µM] | inhibition at 1000 µM (Human Plasmin; at 10^-3 M, in vitro, TAMe) [%] | Structure (SMILES) | % protective (thrombin; 1 mg/kg i.p.) [%] | Survived / Tested (thrombin; 1 mg/kg i.p.) | % protective (thrombin; 10 mg/kg i.p.) [%] | Survived / Tested (thrombin; 10 mg/kg i.p.) | % protective (thrombin; 100 mg/kg i.p.) [%] | Survived / Tested (thrombin; 100 mg/kg i.p.) | IC50 (Human Plasma Kallikrein; in vitro, TAMe) [µM] | IC50 (Bovine Thrombin) [µM] | IC50 (Human Cl Esterase; in vitro, ATEe) [µM] | further results
 |  |  | N=C(N)c1ccc(CC(=O)C(=O)O)cc1 [APPA-Na, sodium p-amidinophenyl pyruvate, reference compound] | 0 | 0/9 | 33 | 3/9 | 46 | 5/11 |  |  |  | Percent inhibition of clotting activity ([1]; 3 × 10^-4 M, DMSO control): 86.5%; Percent inhibition of clotting activity ([1]; 3 × 10^-5 M, DMSO control): -9.5%; Percent inhibition of clotting activity ([1]; 10^-3 M, DMSO control): 100.0%; Percent inhibition of clotting activity ([1]; 10^-4 M, DMSO control): 44.2%; Percent inhibition of clotting activity ([1]; 10^-5 M, DMSO control): -11.7%
 |  |  | Cl.N=C(N)Nc1ccc2c(c1)C(C(=O)Oc1ccccc1)CCC2 (stereo not drawn) [Compound 134, phenyl 7-guanidino-1,2,3,4-tetrahydro-1-naphthoate hydrochloride] | 0 | 0/9 | 10 | 1/10 | 70 | 7/10 | 290 | 27 | 370 | inhibitory activity on kallikrein (Human Plasma Kallikrein; text of Examples): had an inhibitory activity; Percent inhibition of clotting activity ([1]; 3 × 10^-4 M, H2O control): 97.8%; Percent inhibition of clotting activity ([1]; 3 × 10^-5 M, H2O control): 11.1%; Percent inhibition of clotting activity ([1]; 10^-3 M, H2O control): 100%; Percent inhibition of clotting activity ([1]; 10^-4 M, H2O control): 42.2%; Percent inhibition of clotting activity ([1]; 10^-5 M, H2O control): 13.3%; inhibition at 1000 µM (Human Plasmin): < 3.2%; inhibitory activity on plasmin (Human Plasmin; text of Examples): no activity at all; inhibitory activity on Cl-esterase (Human Cl Esterase; text of Examples): had an inhibitory activity; inhibition at 1000 µM (Trypsin): 40.6%
45 | 75 |  | N=C(N)Nc1cccc2c1CCCC2C(=O)Oc1ccc(C(=O)OCc2ccccc2)cc1 (stereo not drawn) [Compound 124] |  |  |  |  |  |  | 190 |  | 1000 | IC50 (Human Plasmin; in vitro, TAMe): 60 µM
20.3 | 61 | < 3.2 | COC(=O)c1cccc(OC(=O)C2CCCc3c(N)cccc32)c1 (stereo not drawn) [Compound 64] |  |  |  |  |  |  |  |  |  | inhibition at 1000 µM (Human Plasma Kallikrein; at 10^-3 M, in vitro, TAMe, read-out: Kallikrein percent inhibition): 28%; inhibition at 1000 µM (Human Cl Esterase; at 10^-3 M, in vitro, ATEe): < 3.2%
< 3.2 | 1000 | 46.1 | N=C(N)Nc1cccc2c1CCCC2C(=O)Oc1cccc2c1CCCC2 (stereo not drawn) [Compound 164] |  |  |  |  |  |  | 1000 |  | 400 | 
 |  |  | CCCCOc1ccc(OC(=O)C2CCCc3ccc(NC(=N)N)cc32)cc1 (stereo not drawn) [Compound 142] |  |  |  |  |  |  | 76 | 24 | 460 | Percent inhibition of clotting activity ([1]; 3 × 10^-4 M, DMSO control): 13.0%; Percent inhibition of clotting activity ([1]; 3 × 10^-5 M, DMSO control): -3.0%; Percent inhibition of clotting activity ([1]; 10^-3 M, DMSO control): 61.0%; Percent inhibition of clotting activity ([1]; 10^-4 M, DMSO control): 0.0%; Percent inhibition of clotting activity ([1]; 10^-5 M, DMSO control): -5.0%; IC50 (Human Plasmin; in vitro, TAMe): 360 µM; inhibition at 1000 µM (Trypsin): 36.9%

Structure (SMILES) | inhibition at 1000 µM (Bovine Thrombin) [%] | IC50 (Trypsin) [µM] | inhibition at 1000 µM (Human Plasmin; at 10^-3 M, in vitro, TAMe) [%] | % protective (thrombin; 1 mg/kg i.p.) [%] | Survived / Tested (thrombin; 1 mg/kg i.p.) | % protective (thrombin; 10 mg/kg i.p.) [%] | Survived / Tested (thrombin; 10 mg/kg i.p.) | % protective (thrombin; 100 mg/kg i.p.) [%] | Survived / Tested (thrombin; 100 mg/kg i.p.) | IC50 (Human Plasma Kallikrein; in vitro, TAMe) [µM] | IC50 (Bovine Thrombin) [µM] | IC50 (Human Cl Esterase; in vitro, ATEe) [µM] | further results
COc1ccc(OC(=O)C2CCCc3ccc(NC(=N)N)cc32)cc1.Cl (stereo not drawn) [Compound 138, p-methoxyphenyl 7-guanidino-1,2,3,4-tetrahydro-1-naphthoate hydrochloride] |  | 1000 | 17 | 0 | 0/10 | 20 | 2/10 | 30 | 3/10 | 280 | 32 |  | inhibition at 1000 µM (Human Cl Esterase): 39%
